Four molecules from paper PMC8040053 (ACS Medicinal Chemistry Letters, 2021) can be followed below.

The IC50 is the concentration needed to halve the response being measured.

The target in experiment [1] is T1, HDAC3 (Homo sapiens, UniProt O15379). The experiment is described as follows: HDAC3 inhibition assay. In kind it is biochemical. Conditions: for HDAC3 LBE: HDAC3-derived ligand binding efficiency.
Experiment [2] addresses T1, HDAC3. The experiment is described as follows: HDAC3 progress curve analysis / jump dilution. The experiment is classed as biochemical. Particulars: HDAC3, linear progress curves.
A short description of experiment [3]: Lead profiling panel of 115 biochemical and binding assays at Eurofins Panlabs. Particulars: 115-assay panel.

T1 sequence (O15379 whole entry): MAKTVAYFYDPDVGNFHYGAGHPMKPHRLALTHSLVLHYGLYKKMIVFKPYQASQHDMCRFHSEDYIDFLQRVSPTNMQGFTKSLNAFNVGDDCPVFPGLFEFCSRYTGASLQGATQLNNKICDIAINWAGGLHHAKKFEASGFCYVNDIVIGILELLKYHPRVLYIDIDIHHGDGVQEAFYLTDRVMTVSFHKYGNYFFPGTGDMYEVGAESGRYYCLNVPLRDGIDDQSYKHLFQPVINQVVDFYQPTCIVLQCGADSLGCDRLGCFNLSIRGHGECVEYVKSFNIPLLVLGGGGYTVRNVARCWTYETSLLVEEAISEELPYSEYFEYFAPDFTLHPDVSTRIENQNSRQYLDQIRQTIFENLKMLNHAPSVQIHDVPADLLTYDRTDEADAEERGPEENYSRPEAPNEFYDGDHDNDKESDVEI
T1 sequence (Q9Y618 1-899 partner limits assumed): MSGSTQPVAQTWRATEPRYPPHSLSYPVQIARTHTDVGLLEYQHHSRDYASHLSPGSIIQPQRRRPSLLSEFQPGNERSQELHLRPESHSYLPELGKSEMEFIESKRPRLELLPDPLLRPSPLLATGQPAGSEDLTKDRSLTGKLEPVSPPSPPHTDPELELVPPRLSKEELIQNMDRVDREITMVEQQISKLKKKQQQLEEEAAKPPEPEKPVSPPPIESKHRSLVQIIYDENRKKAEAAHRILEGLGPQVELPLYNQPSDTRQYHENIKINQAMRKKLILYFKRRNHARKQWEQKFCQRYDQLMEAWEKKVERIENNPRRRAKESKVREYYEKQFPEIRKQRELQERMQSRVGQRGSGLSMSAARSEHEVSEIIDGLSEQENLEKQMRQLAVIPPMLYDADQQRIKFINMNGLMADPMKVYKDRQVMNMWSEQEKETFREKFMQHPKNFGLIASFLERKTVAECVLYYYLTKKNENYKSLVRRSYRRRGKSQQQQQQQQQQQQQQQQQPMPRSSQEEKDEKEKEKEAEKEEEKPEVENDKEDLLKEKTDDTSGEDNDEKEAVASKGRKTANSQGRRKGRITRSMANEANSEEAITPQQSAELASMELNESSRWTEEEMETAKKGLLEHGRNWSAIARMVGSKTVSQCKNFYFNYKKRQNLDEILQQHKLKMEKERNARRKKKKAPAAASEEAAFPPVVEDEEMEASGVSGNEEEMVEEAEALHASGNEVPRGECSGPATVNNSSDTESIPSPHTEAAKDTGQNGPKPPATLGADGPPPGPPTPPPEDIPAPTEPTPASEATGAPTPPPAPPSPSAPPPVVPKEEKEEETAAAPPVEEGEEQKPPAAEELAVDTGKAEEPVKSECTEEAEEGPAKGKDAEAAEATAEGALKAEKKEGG

Regarding `CCCC[C@H](NC(=O)[C@H](C)c1c(C)[nH]c2ccc(OC)cc12)c1ncc(-c2cc3ccccc3nc2OC)[nH]1` [Compound 20], the “HDAC3 LBE” value on HDAC3 [1] came out at 0.25. Turning to `CCCC[C@H](NC(=O)[C@H](CN)c1c(C)[nH]c2ccc(OC)cc12)c1ncc(-c2cc3ccccc3nc2OC)[nH]1` [Compound 21], the IC50 on HDAC3 [1] (read-out: HDAC3 IC50, Table 3) is 18 nM. Take `CCCC[C@H](NC(=O)[C@H](C)c1c(C)[nH]c2ccc(O)cc12)c1ncc(-c2cc3ccccc3nc2OC)[nH]1` [Compound 19]: on HDAC3 [1], the “HDAC3 LBE” value stood at 0.25. Moreover, on HDAC3 [2], the inhibition kinetics mechanism result is given as “fast-on/fast-off kinetics”. The “selectivity for HDAC inhibition over off-target hits” value in experiment [3] is 10–1000 fold. Take `CCCC[C@H](NC(=O)C1CN(C)C1)c1ncc(-c2cc3ccccc3nc2OC)[nH]1` [Compound 12]: the inhibition kinetics mechanism entry against HDAC3 [2] was “fast-on/fast-off kinetics”.
